Measurements published in patent US20260176320A1, “MODULATORS OF G-PROTEIN COUPLED RECEPTORS” (priority 2018, published 2026).
Read-outs that look alike come from different tables or passages of the source. Numbered stars: 1 amine (or outer) side, 2 acyl side, 3 side chain; on linkers, the order of the positions; unused ones are H or OH. Square brackets hold non-standard residues; d marks the D form. Side chains are listed from the residue outwards. Peptide text beside a SMILES is read from it. * marks the point of attachment. γGlu = O=C(O)[C@H](CCC(=O)[*:2])N[*:1]; X2 = O=C(CSCC(=O)*)NCCN1C(=O)CSC1=O; Palmitoyl = CCCCCCCCCCCCCCCC(=O)*; Aib = CC(C)(N)C(=O)O

How the values were obtained:
Format in all cases: cell-based
GLP-1R [1] = molecular target: T1, GLP-1R (Homo sapiens, UniProt P43220); experiment: HitHunter cAMP assay (GLP-1R); conditions: cAMP; for Emax: read-out: (Emax) GLP-1R
T1 sequence (P43220 24-463): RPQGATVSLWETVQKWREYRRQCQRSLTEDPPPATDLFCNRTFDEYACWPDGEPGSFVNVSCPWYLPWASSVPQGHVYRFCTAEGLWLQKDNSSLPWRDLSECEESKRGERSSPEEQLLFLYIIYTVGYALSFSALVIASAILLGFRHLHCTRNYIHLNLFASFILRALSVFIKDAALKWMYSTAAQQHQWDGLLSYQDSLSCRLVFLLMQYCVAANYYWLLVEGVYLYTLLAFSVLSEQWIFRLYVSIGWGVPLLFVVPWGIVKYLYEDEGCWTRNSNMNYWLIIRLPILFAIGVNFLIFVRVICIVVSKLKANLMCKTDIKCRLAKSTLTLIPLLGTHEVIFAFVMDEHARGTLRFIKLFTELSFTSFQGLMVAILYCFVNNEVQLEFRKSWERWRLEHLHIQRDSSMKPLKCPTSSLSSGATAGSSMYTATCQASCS
How it was run: (§1)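 cAMP, luminescence read: agonist 22-pt 2× dilution in DMSO, duplicate, 30 min RT on 10,000 cells/well in 1×HBSS/10 mM HEPES/625 μM IBMX/0.2% BSA; anti-cAMP reagent 1 h RT dark, then O/N RT dark before read.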

GIP-R = molecular target: T2, GIP-R (Homo sapiens, UniProt P48546); experiment: HitHunter cAMP assay (GIP-R); conditions: cAMP; for Emax: read-out: (Emax) GIP-R
T2 sequence (P48546 22-466): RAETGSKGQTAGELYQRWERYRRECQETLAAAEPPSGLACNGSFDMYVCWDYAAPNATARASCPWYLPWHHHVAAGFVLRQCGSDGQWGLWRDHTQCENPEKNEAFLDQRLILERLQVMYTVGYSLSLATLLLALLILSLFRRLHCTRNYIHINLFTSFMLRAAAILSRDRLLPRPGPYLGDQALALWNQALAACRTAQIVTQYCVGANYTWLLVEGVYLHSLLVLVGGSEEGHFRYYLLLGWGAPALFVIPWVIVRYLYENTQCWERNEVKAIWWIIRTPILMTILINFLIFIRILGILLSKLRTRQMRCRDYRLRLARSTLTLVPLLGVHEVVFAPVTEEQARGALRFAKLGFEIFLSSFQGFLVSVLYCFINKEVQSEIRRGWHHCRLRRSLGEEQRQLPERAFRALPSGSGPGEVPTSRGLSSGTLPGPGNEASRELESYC
How it was run: as §1

GLP-1R [2] = molecular target: T1, GLP-1R; experiment: PathHunter β-arrestin assay
How it was run: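 Luminescence read-out of β-arrestin recruitment (enzyme-fragment complementation detection, 3 h at room temperature in the dark) after 90 min agonist stimulation at 37 °C. Agonists tested as 22-point 2× serial dilutions in duplicate, in medium containing 0.2% BSA.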

Compound: CC[C@H](C)[C@H](NC(=O)[C@H](CO)NC(=O)[C@H](Cc1ccc(O)cc1)NC(=O)[C@H](CC(=O)O)NC(=O)[C@H](CO)NC(=O)[C@@H](NC(=O)[C@H](Cc1ccccc1)NC(=O)[C@@H](NC(=O)CNC(=O)[C@H](CCC(=O)O)NC(=O)CSCC(=O)NCCN1Cc2ccccc2C1=O)[C@@H](C)O)[C@@H](C)O)C(=O)N[C@@H](Cc1ccc(O)cc1)C(=O)N[C@@H](CC(C)C)C(=O)N[C@@H](CC(=O)O)C(=O)N[C@@H](CCCCN)C(=O)N[C@@H](CCC(N)=O)C(=O)N[C@@H](C)C(=O)N[C@@H](C)C(=O)NC(C)(C)C(=O)N[C@@H](CCC(=O)O)C(=O)N[C@@H](Cc1ccccc1)C(=O)N[C@H](C(=O)N[C@@H](CC(N)=O)C(=O)N[C@@H](Cc1c[nH]c2ccccc12)C(=O)N[C@@H](CC(C)C)C(=O)N[C@@H](CC(C)C)C(=O)N[C@@H](C)C(=O)NCC(=O)NCC(=O)N1CCC[C@H]1C(=O)N[C@@H](CO)C(=O)N[C@@H](CO)C(=O)NCC(=O)N[C@@H](C)C(=O)N1CCC[C@H]1C(=O)N1CCC[C@H]1C(=O)N1CCC[C@H]1C(=O)N[C@@H](CO)C(=O)N[C@@H](CCCCN)C(N)=O)C(C)C [Compound 152]
- EC50 (GLP-1R [1]; EC50 GLP-1R/nM, Table 3): 10 to 100 nM
- EC50 (GLP-1R [1]; EC50 GLP-1R/nM, Table 3A): 10 to 100 nM
- Emax (GLP-1R [1]; Table 3): 85%
- Emax (GLP-1R [1]; Table 3A): 85%
- EC50 (GIP-R; EC50 GIP-R/nM, Table 3): 1 to 10 nM
- EC50 (GIP-R; EC50 GIP-R/nM, Table 3A): 1 to 10 nM
- Emax (GIP-R; Table 3): 103%
- Emax (GIP-R; Table 3A): 103%
- EC50 (GLP-1R [2]): > 1000 nM

Compound: CCCCCCCCCCCCCCCC(=O)N[C@@H](CCC(=O)NCCCC[C@H](NC(=O)[C@H](CO)NC(=O)[C@@H]1CCCN1C(=O)[C@@H]1CCCN1C(=O)[C@@H]1CCCN1C(=O)[C@H](C)NC(=O)CNC(=O)[C@H](CO)NC(=O)[C@H](CO)NC(=O)[C@@H]1CCCN1C(=O)CNC(=O)CNC(=O)[C@H](C)NC(=O)[C@H](CC(C)C)NC(=O)[C@H](CC(C)C)NC(=O)[C@H](Cc1c[nH]c2ccccc12)NC(=O)[C@H](CC(N)=O)NC(=O)[C@@H](NC(=O)[C@H](Cc1ccccc1)NC(=O)[C@H](CCC(=O)O)NC(=O)C(C)(C)NC(=O)[C@H](C)NC(=O)[C@H](C)NC(=O)[C@H](CCC(N)=O)NC(=O)[C@H](CCCCN)NC(=O)[C@H](CC(=O)O)NC(=O)[C@H](CCSC)NC(=O)[C@H](C)NC(=O)[C@@H](NC(=O)[C@H](CO)NC(=O)[C@H](Cc1ccc(O)cc1)NC(=O)[C@H](CC(=O)O)NC(=O)[C@H](CO)NC(=O)[C@@H](NC(=O)[C@H](Cc1ccccc1)NC(=O)[C@@H](NC(=O)CNC(=O)[C@H](CCC(=O)O)NC(=O)CSCC(=O)NCCN1C(=O)CSC1=O)[C@@H](C)O)[C@@H](C)O)[C@@H](C)CC)C(C)C)C(N)=O)C(=O)O [Compound 71] (X2-EGTFTSDYSIAMDKQAA[Aib]EFVNWLLAGGPSSGAPPPSK([γGlu-Palmitoyl])-NH2)
- Emax (GLP-1R [1]; Table 3): 102%
- EC50 (GLP-1R [1]; Table 3, read-out: EC50 GLP-1R/nM): 0.1 to 10 nM
- Emax (GLP-1R [1]; Table 3A): 102%
- EC50 (GLP-1R [1]; Table 3A, read-out: EC50 GLP-1R/nM): 0.1 to 10 nM
- Emax (GIP-R; Table 3): 77 to 87%
- EC50 (GIP-R; Table 3, read-out: EC50 GIP-R/nM): 1 to 10 nM
- Emax (GIP-R; Table 3A): 77 to 87%
- EC50 (GIP-R; Table 3A, read-out: EC50 GIP-R/nM): 1 to 10 nM
- EC50 (GLP-1R [2]; PathHunter β-arrestin assay, read-out: β-arrestin activity EC50): > 1000 nM

Compound: CCCCCCCCCCCCCCCC(=O)N[C@@H](CCC(=O)NCCCC[C@H](NC(=O)[C@H](CO)NC(=O)[C@@H]1CCCN1C(=O)[C@@H]1CCCN1C(=O)[C@@H]1CCCN1C(=O)[C@H](C)NC(=O)CNC(=O)[C@H](CO)NC(=O)[C@H](CO)NC(=O)[C@@H]1CCCN1C(=O)CNC(=O)CNC(=O)[C@H](C)NC(=O)[C@H](CC(C)C)NC(=O)[C@H](CC(C)C)NC(=O)[C@H](Cc1c[nH]c2ccccc12)NC(=O)[C@H](CC(N)=O)NC(=O)[C@@H](NC(=O)[C@H](Cc1ccccc1)NC(=O)[C@H](CCC(=O)O)NC(=O)C(C)(C)NC(=O)[C@H](C)NC(=O)[C@H](C)NC(=O)[C@H](CCC(N)=O)NC(=O)[C@H](CCCCN)NC(=O)[C@H](CC(=O)O)NC(=O)[C@H](CC(C)C)NC(=O)[C@H](Cc1ccc(O)cc1)NC(=O)[C@@H](NC(=O)[C@H](CO)NC(=O)[C@H](Cc1ccc(O)cc1)NC(=O)[C@H](CC(=O)O)NC(=O)[C@H](CO)NC(=O)[C@@H](NC(=O)[C@H](Cc1ccccc1)NC(=O)[C@@H](NC(=O)CNC(=O)[C@H](CCC(=O)O)NC(=O)CSCC(=O)NCCN1C(=O)c2ccccc2C1=O)[C@@H](C)O)[C@@H](C)O)[C@@H](C)CC)C(C)C)C(N)=O)C(=O)O [Compound 173]
- EC50 (GLP-1R [1]; EC50 GLP-1R/nM, Table 3): 1 to 10 nM
- EC50 (GLP-1R [1]; EC50 GLP-1R/nM, Table 3A): 1 to 10 nM
- Emax (GLP-1R [1]; Table 3): 90 to 105%
- Emax (GLP-1R [1]; Table 3A): 90 to 105%
- EC50 (GIP-R; EC50 GIP-R/nM, Table 3): 0.1 to 1 nM
- EC50 (GIP-R; EC50 GIP-R/nM, Table 3A): 0.1 to 1 nM
- Emax (GIP-R; Table 3): 92 to 111%
- Emax (GIP-R; Table 3A): 92 to 111%
- EC50 (GLP-1R [2]): > 1000 nM
